Patent publication US4971966A, “Substituted pyrido(2,3-B) (1,4) benzodiazepin-6-ones, and medicaments containing these compounds” (Karl Thomae GmbH, priority 1986, dated 1990)
Where two headings read alike, the source gives them in different places.

Tests used:
[1] = biological target: T1, muscarinic receptors, lacrimal glands (Rattus norvegicus, UniProt P08483); test: Receptor binding assay in vivo, lacrimal gland; parameters: species or system female rats; details: iv, 0.5 h, read-out: ID50, lacrimal gland
T1 construct: the heart, the bronchi and the lacrimal glands were removed; from tissue; host or cells: rat lacrimal glands, labelled in vivo
Procedure: (§1) Female rats with a body weight of about 200 g were used for these experiments. Before the start of the experiment, the animals were anaesthetised with a dose of 1.25 g/kg urethane. The animals each received the specified dose of the test substance by i.v. injection. After 15 minutes had elapsed 113 ng/kg ^3 H-N-methylscopolamine (^3 H-NMS) were administered in the same way. After a further 15 minutes, the animals were sacrificed, and the heart, the bronchi and the lacrimal glands were removed. These organs were dissolved in Soluene R, and the radioactivity was determined. These measurements were assumed to be the total binding. […] ID50 values were determined for the individual organs from these experiments.

M1 = biological target: T2, M1 (Rattus norvegicus, UniProt P08482); test: M1/M2 selectivity in the rat: M1-activity (increase in blood pressure caused by McN-A-343); type: in vivo, male THOM rats; details: iv, read-out: M1-activity (rat) ED50
T2 construct: from tissue; host or cells: living male THOM rat, sympathetic ganglia (site by own knowledge)
T2 sequence (P08482 1-460): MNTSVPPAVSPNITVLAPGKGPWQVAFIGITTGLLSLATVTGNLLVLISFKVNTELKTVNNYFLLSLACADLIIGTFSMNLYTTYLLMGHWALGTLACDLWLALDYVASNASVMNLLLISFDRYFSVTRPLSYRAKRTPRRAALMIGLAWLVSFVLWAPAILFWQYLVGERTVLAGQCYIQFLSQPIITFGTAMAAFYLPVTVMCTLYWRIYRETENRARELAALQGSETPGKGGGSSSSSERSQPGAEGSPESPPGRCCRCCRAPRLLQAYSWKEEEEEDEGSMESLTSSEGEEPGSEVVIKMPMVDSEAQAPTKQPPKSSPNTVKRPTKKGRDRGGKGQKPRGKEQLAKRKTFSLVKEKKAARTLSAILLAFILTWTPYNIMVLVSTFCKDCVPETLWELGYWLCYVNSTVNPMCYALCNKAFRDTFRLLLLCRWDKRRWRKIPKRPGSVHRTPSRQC
Procedure: The dose of the substances which reduced either the vagal bradycardia (M2) or the increase in blood pressure (M1) by 50% was determined graphically.

[2] = test system: pilocarpine-induced secretion of saliva; test: Effect inhibiting secretion of saliva in the rat; type: in vivo, male THOM rats; details: iv, 2 mg/kg pilocarpine s.c., urethane anaesthesia, read-out: Inhibition of secretion of saliva (rat) ED50
Procedure: Secretion of saliva was induced by s.c. administration of 2 mg/kg pilocarpine. The saliva was absorbed using blotting paper, and the area covered by it was determined by planimetry every 5 minutes. The dose of the substance which reduced the volume of saliva by 50% was determined graphically.

M2 = biological target: T3, M2 (Rattus norvegicus, UniProt P10980); test: M1/M2 selectivity in the rat: M2-activity (vagal bradycardia); type: in vivo, male THOM rats; details: iv, read-out: M2-activity (rat) ED50
T3 construct: The bradycardia induced by stimulation of the vagus; from tissue; host or cells: living male THOM rat, heart
T3 sequence (P10980 1-466): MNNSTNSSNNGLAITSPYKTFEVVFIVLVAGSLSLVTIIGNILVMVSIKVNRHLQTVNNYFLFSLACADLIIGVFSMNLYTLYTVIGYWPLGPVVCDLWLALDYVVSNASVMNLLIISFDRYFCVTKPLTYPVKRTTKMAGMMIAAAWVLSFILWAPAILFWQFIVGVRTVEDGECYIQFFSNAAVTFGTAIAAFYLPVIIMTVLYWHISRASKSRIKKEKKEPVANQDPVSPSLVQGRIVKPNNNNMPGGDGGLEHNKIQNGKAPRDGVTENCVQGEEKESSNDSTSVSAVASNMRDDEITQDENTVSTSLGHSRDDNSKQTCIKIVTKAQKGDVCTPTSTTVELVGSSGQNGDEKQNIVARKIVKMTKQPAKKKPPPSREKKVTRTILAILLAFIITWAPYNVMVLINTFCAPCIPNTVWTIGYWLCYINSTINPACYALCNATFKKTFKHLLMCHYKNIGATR
Procedure: The method which was used has been described by Hammer and Giachetti (Life Sciences 31, 2991-2998 (1982)). Five minutes after intravenous injection of increasing doses of the substance, either the right vagus was electrically stimulated (frequency: 25 Hz; pulse width: 2ms; stimulus duration: 30s; number of volts: supramaximal) or 0.3 mg/kg McN-A-343 was injected intravenously into male THOM rats. The bradycardia induced by stimulation of the vagus, and the increase in blood pressure caused by McN-A-343, were determined. The dose of the substances which reduced either the vagal bradycardia (M2) or the increase in blood pressure (M1) by 50% was determined graphically.

[3] = biological target: T4, muscarinic receptors, submandibular gland (Rattus norvegicus, UniProt P08483); test: Receptor binding assay in vitro, submandibular gland (3H-NMS displacement); parameters: species or system male Sprague-Dawley rats; details: rat submandibular gland homogenate; 0.3 nmolar 3H-NMS, 30° C., 45 min, pH 7.4
T4 construct: After removal of the heart, submandibular gland and cerebral cortex; from tissue; host or cells: rat submandibular gland homogenate

[4] = biological target: T5, muscarinic receptors of the atrium (Cavia porcellus, UniProt H0VRN8); test: Dissociation constants in vitro on the spontaneously beating right atrium; parameters: species or system guinea pig; details: methacholine agonist, 30 min contact, Arunlakshana and Schild, read-out: Dissociation constant KB, heart
T5 construct: In the isolated, spontaneously beating right atrium, M reduced the heart rate; from tissue; host or cells: guinea pig isolated right atrium
T5 sequence (H0VRN8 1-466): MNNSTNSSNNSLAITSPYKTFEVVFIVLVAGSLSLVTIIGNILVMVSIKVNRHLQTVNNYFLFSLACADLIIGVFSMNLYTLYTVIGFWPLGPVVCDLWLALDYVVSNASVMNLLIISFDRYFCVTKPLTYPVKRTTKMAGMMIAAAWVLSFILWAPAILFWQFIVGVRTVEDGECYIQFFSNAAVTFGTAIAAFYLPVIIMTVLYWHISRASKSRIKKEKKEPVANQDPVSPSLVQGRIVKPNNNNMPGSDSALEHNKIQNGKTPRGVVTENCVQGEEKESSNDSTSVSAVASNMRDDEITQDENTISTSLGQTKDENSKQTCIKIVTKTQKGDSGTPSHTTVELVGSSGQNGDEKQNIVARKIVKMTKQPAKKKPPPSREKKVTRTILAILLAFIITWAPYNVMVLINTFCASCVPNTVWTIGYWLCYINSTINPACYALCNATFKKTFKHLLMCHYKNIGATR
Procedure: (§2) Dissociation constants (KB values) were determined "in vitro" on the ileum and spontaneously beating atrium of the guinea pig. The ileum was removed and incubated in Krebs-Henseleit solution in an organ bath. Contractions were induced by increasing concentrations of methacholine (M) in such a way that it was possible to construct complete concentration-effect curves. Then M was washed out, the substance to be investigated was added and left in contact for 30 minutes, and again a concentration-effect curve with M was constructed.
Dissociation constants for the muscarinic receptors of the atrium were obtained in the same way as described above. Comparison of the dissociation constants determined in the two tissues permitted cardioselective substances to be identified.

[5] = biological target: T6, muscarinic receptors, ileum (Cavia porcellus, UniProt H0W1Z3); test: Dissociation constants in vitro on the ileum; parameters: species or system guinea pig; details: ileum contractions; methacholine agonist; 30 min contact; Arunlakshana and Schild; read-out: Dissociation constant KB, ileum
T6 construct: The ileum was removed and incubated in Krebs-Henseleit solution in an organ bath; from tissue; host or cells: guinea pig isolated ileum
Procedure: as §2

[6] = test system: heart rate, conscious dog; test: Effect increasing the heart rate in the conscious dog (tachycardia); type: in vivo; details: for ED50: Canis lupus familiaris, dose for increase of 50 beats/min.
Procedure: The substances were either injected intravenously or administered orally, and the heart rate was measured using a tachygraph. After a control period, increasing doses of the compound were administered in order to increase the heart rate. In each case, the next dose was administered when the effect of the preceding dose was no longer evident. The dose of a substance which brought about an increase of 50 beats/min. (ED50) was determined graphically. Each substance was examined on 3 to 5 dogs.

[7] = biological target: T7, muscarinic receptors, complete heart (Rattus norvegicus, UniProt P10980); test: biochemical
T7 sequence (P10980 1-466): T3 sequence (P10980 1-466)

[8] = test system: muscarinic receptors, bronchi; test: Receptor binding assay in vivo, bronchi; parameters: species or system female rats; details: i.v.; inhibition of 50% of specific 3H-NMS binding; 30 min
Procedure: as §1

[9] = biological target: T8, muscarinic receptors, heart ventricle (Rattus norvegicus, UniProt P10980); test: Receptor binding assay in vivo, heart ventricle; parameters: species or system female rats; details: iv, 0.5 h, read-out: ID50, heart ventricle
T8 construct: the heart, the bronchi and the lacrimal glands were removed; from tissue; host or cells: rat heart ventricle, labelled in vivo
T8 sequence (P10980 1-466): T3 sequence (P10980 1-466)
Procedure: as §1

[10] = biological target: muscarinic receptors, cerebral cortex; test: Receptor binding assay in vitro, cerebral cortex (3H-NMS displacement); parameters: species or system male Sprague-Dawley rats; details: rat cerebral cortex homogenate; 0.3 nmolar 3H-NMS, 30° C., 45 min, pH 7.4
Procedure: The organ donors were male Sprague-Dawley rats with a body weight of 180-220 g. […] Finally, all the organs were processed in a potter homogeniser. […] The organ homogenates were incubated at a defined concentration of the radio-ligand and a series of concentrations of the non-radioactive test substances in Eppendorf centrifuge tubes at 30° C. The incubation lasted 45 minutes. The radioligand used was 0.3 nmolar ^3 H-N-methylscopolamine (^3 H-NMS). The incubation was stopped by addition of ice-cold buffer, followed by a vacuum filtration. The filters were washed with cold buffer, and their radioactivity was determined. This represents the total of specific and non-specific binding of ^3 H-NMS. The contribution of the non-specific binding was defined as that radioactivity which was bound in the presence of 1 micromolar quinuclidinyl benzylate. Determinations were always carried out in quadruplicate. The IC50 values of the unlabelled test substances were determined graphically.

[11] = biological target: T9, muscarinic receptors, heart atrium (Rattus norvegicus, UniProt P10980); test: Receptor binding assay in vivo, heart atrium; parameters: species or system female rats; details: iv, 0.5 h, read-out: ID50, heart atrium
T9 construct: the heart, the bronchi and the lacrimal glands were removed; from tissue; host or cells: rat heart atrium, labelled in vivo
T9 sequence (P10980 1-466): T3 sequence (P10980 1-466)
Procedure: as §1

T1 sequence (P08483 whole entry): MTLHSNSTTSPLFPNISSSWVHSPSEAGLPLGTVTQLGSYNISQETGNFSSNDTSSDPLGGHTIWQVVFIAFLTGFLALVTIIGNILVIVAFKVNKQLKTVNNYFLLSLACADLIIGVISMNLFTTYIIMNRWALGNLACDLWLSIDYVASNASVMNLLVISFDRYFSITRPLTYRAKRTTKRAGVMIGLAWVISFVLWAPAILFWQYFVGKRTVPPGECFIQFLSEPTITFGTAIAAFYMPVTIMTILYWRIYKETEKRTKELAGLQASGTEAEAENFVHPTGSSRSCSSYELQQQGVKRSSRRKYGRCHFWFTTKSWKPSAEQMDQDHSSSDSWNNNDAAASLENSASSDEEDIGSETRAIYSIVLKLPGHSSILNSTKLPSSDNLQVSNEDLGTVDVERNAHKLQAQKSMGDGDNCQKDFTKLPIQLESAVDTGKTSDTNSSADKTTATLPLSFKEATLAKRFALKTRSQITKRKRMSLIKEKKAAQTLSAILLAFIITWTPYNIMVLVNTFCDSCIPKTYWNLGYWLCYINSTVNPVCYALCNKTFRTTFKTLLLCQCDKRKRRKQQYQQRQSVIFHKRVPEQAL
T4 sequence (P08483 whole entry): as above
T6 sequence (H0W1Z3 1-590): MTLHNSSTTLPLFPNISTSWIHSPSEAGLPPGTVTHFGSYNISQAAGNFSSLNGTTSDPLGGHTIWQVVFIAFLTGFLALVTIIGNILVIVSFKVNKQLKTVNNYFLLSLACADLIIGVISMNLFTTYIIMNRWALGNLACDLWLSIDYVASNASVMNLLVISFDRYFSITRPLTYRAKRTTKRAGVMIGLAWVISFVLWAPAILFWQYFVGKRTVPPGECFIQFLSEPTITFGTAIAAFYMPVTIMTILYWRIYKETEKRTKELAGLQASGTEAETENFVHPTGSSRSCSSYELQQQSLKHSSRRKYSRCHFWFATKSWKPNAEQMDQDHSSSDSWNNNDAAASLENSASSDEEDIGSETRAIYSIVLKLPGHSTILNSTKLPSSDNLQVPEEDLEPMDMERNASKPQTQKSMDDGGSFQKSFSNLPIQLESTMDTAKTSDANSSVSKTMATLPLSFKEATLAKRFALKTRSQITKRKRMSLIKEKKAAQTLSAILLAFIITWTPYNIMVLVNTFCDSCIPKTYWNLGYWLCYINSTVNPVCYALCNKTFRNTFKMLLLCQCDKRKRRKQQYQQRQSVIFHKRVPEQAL

Compound: CCN(CC)CC1CCCCN1CC(=O)N1c2ccccc2C(=O)Nc2cccnc21 (stereo not drawn) [Substance B, 11-[[2-[(diethylamino)methyl]-1-piperidinyl]acetyl]-5,11-dihydro-6H-pyrido[2,3-b][1,4]benzodiazepin-6-one]
- ED50 [1]: 30 mg/kg

Compound: CCN(CC)CC1CCCCN1CC(=O)N1c2cc(Cl)ccc2C(=O)Nc2cccnc21 (stereo not drawn) [Substance A, 9-chloro-11-[[2-[(diethylamino)methyl]-1-piperidinyl]-acetyl]-5,11-dihydro-6H-pyrido[2,3-b]-[1,4]benzodiazepin-6-one]
- ED50 (M1; 50% reduction of McN-A-343 (0.3 mg/kg i.v.) blood pressure increase): 1.48 mg/kg
- ED50 [2]: 7.57 mg/kg
- ED50 (M2; 50% reduction of vagal bradycardia): 0.077 mg/kg
- IC50 [3]: 1500 nM
- ED50 [1]: 30 mg/kg
- Kb [4]: 14.8 nM
- Kb [5]: 513 nM
- ED50 ([6]; intravenous, read-out: Tachycardia (dog) ED50 intravenous): 0.17 mg/kg
- ED50 ([6]; oral, read-out: Tachycardia (dog) ED50 oral): 0.38 mg/kg
- Ratio ED50 p.o./ED50 i.v. ([6]; tachycardia, conscious dog): 2
- IC50 [7]: 50 nM
- ID50, bronchi [8]: 8.0 mg/kg
- ED50 [9]: 0.3 mg/kg
- IC50 [10]: 500 nM
- ED50 [11]: 0.6 mg/kg

Compound: CN1[C@@H]2CC[C@H]1CC(OC(=O)C(CO)c1ccccc1)C2 (stereo partly drawn) [Substance D, atropine, reference compound]
- ED50 (M1): 0.016 mg/kg
- ED50 (M2): 0.004 mg/kg
- ED50 [1]: 0.2 mg/kg
- Kb [4]: 1.41 nM
- ID50, bronchi [8]: 0.1 mg/kg
- ED50 [9]: 0.03 mg/kg
- ED50 [11]: 0.08 mg/kg

Compound: CN1CCN(CC(=O)N2c3ccccc3C(=O)Nc3cccnc32)CC1 [Substance C, 5,11-dihydro-11-[(4-methyl-1-piperazinyl)acetyl]-6H-pyrido[2,3-b][1,4]benzodiazepin-6one]
- ED50 [2]: 0.084 mg/kg
